PubChem BioAssay AID720587 (Broad Institute, 2013)

System: A673 Ewing sarcoma viability, CellTiter-Glo ATP luminescence, 72 h
Experiment: EWS/Fli1-dependent A673 cell killing, confirmation, CellTiter-Glo luminescence, cherry-pick retest (AID 720587)

Row | SMILES | AC35 [µM]
1 | C[C@@H]1CN([C@@H](C)CO)C(=O)c2cccc(N(C)C)c2O[C@@H]1CN(C)Cc1ccc(C(=O)Nc2ccccc2N)cc1 | 13.8
2 | O=C(O)c1ccc(N/N=C/c2ccc3c(c2)OCO3)cc1 | 16.5
3 | C[C@]12CCC3C(CCC4=CC(O)CC[C@@]43/C=N/O)C1(O)CCC2C1=CC(=O)OC1 (some centres undefined) | 0.569
4 | CN=c1scc(-c2ccccc2F)n1/N=C/c1ccc[nH]1 | 10.1
5 | COc1ccc(C=C2CCc3ccccc3C2=O)cc1 | 18.9
6 | C[C@@H]1CN([C@H](C)CO)C(=O)CCCn2nncc2CO[C@H]1CN(C)Cc1ccc(Oc2ccccc2)cc1 | 21.1
7 | COCCOC(=O)N1C(=O)[C@@]2(c3cc(C#CCC(C(=O)OC)C(=O)OC)ccc31)[C@H](c1ccccc1OCCO)N1[C@H](c3ccccc3)[C@H](c3ccccc3)OC(=O)[C@H]1[C@@H]2C(=O)N1CCN(c2ncccn2)CC1 | 5.04
8 | C[C@@H]1O[C@@H](O[C@@H]2C=C3CCC4C(CC[C@]5(C)[C@@H](c6ccc(=O)oc6)CC[C@]45O)[C@@]3(C)CC2)[C@H](O)[C@H](O)[C@H]1O (some centres undefined) | 0.0136
9 | CN(C)c1ncnc2c1ccn2C1OC(CO)C(O)C1O (centres undefined) | 2.94
10 | O=C(/C=C/c1cc(Br)ccc1O)c1ccco1 | 12.3
11 | COc1ccc(S(=O)(=O)Nc2cccc3c2O[C@H](CN(C)Cc2ccc(C(=O)Nc4ccccc4N)cc2)[C@H](C)CN([C@@H](C)CO)C3=O)cc1 | 5.46
12 | C[C@H](CO)N1C[C@H](C)[C@H](CN(C)Cc2ccc(Oc3ccccc3)cc2)Oc2ccc(NC(=O)CCCCCC(=O)Nc3ccccc3N)cc2CC1=O | 4.84
13 | O=C(Sc1cccc2cccnc12)c1ccccc1Br | 1.17
14 | C[C@@H]1CCCCO[C@H](CN(C)Cc2ccc(C(=O)Nc3ccccc3N)cc2)[C@@H](C)CN([C@@H](C)CO)C(=O)c2cc(NS(=O)(=O)c3ccc(Cl)cc3)ccc2O1 | 8.42
15 | C[C@H]1CN([C@@H](C)CO)C(=O)c2cc(NS(=O)(=O)c3ccc(Cl)cc3)ccc2O[C@H]1CN(C)Cc1ccc(C(=O)Nc2ccccc2N)cc1 | 13.1
16 | CCCCCCCCCCCCCCCCCCNc1ccn(C2OC(COP(=O)(O)OCC3OC(n4cc(F)c(=O)[nH]c4=O)CC3O)C(O)C2O)c(=O)n1 (centres undefined) | 0.137
17 | COc1cc2oc3cc(C#Cc4ccc(N)cc4)ccc3c(=O)c2cc1OC | 17.4
18 | O=C1NC(=O)N(c2ccccc2)C(=O)/C1=C\C=C\c1ccccc1 | 4.03
19 | COC(=O)C[C@@H]1CC[C@H]2[C@H](COc3ccc(NC(=O)Nc4ccc(C#N)cc4)cc3C(=O)N2C)O1 | 11.3
20 | C[C@H](CO)N1C[C@H](C)[C@H](CN(C)Cc2ccc(C(=O)Nc3ccccc3N)cc2)Oc2c(cccc2N(C)C)C1=O | 17.6
21 | CO[C@H]1CN(C)C(=O)c2ccc(NC(=O)c3ccc(-c4ccccc4)cc3)cc2OC[C@H](C)NC[C@H]1C | 10.5

Row | SMILES | AC35 [µM]
22 | O=C(N/N=C/c1ccc[nH]1)c1cc(-c2ccc(Cl)cc2)nc2ccccc12 | 11.6
23 | O=C(Nc1ccc2c(c1)OCO2)N1C[C@@H]2N[C@H](C1)C2c1ccc(C=Cc2ccccc2)cc1 (some centres undefined) | 4.6
24 | C(=Cc1c[nH]c2ccccc12)c1ccc2ccccc2n1 | 1.16
25 | O=c1cc(-c2ccccc2)oc2ccc3ccccc3c12 | 5.83
26 | C[C@H](CO)N1C[C@H](C)[C@H](CN(C)Cc2ccc(C(=O)Nc3ccccc3N)cc2)Oc2ccc(NC(=O)C3CC3)cc2CC1=O | 7.86
27 | C[C@@H]1CN([C@H](C)CO)C(=O)c2cc(C#CCN(C)C)cnc2O[C@H]1CN(C)Cc1ccc(-c2ccccc2)cc1 | 10.2
28 | C[C@H](CO)N1C[C@H](C)[C@H](CN(C)Cc2ccc(Oc3ccccc3)cc2)Oc2ccc(NC(=O)Cn3cnnn3)cc2CC1=O | 8.16
29 | COc1ccc(CCCNC(=O)C2Cc3c(-c4ccc5c(c4)OCO5)ccnc3O2)cc1 (centres undefined) | 15.8
30 | COC(=O)Cc1[nH]n(-c2nc3ccccc3s2)c(=O)c1C(C)=Nc1ccc(OC)cc1 | 19.2
31 | CCCCCCCCCCCCCCCCn1cc[n+](C)c1 | 12.6
32 | O=C(N/N=C/c1cccs1)c1n[nH]c2c1CCCC2 | 17.7
33 | COC(=O)c1ccccc1-c1c2ccc(=N)cc-2oc2cc(N)ccc12 | 3.64
34 | O=c1cc(CN2CCN(Cc3ccccc3)CC2)c2ccc(O)c(O)c2o1 | 8.02
35 | Cc1cc2c(C(C)C)c(O)c(O)c(C=O)c2c(O)c1-c1c(C)cc2c(C(C)C)c(O)c(O)c(C=O)c2c1O | 6.09
36 | O=C1c2ccccc2C(=O)N1CCCCNc1ccccc1 | 10.8
37 | CN1C(=O)c2cc(NC(=O)c3ccc(Cl)cc3)ccc2OC[C@@H]2O[C@@H](CC(=O)NCc3cccc(F)c3)CC[C@H]21 | 5.42
38 | COc1ccc(/C=C2\SC(=S)N(CCCC(=O)NNC(=O)c3ccccc3O)C2=O)cc1 | 16.8
39 | COc1ccccc1C(CCNCc1ccc(N(C)C)cc1)c1ccc(OC(C)C)cc1 (centres undefined) | 4.19
40 | O=C(Nc1ccccc1F)N1CCCCN2[C@H](CO)[C@H](c3ccc(/C=C/c4ccccc4)cc3)[C@H]2C1 | 3.64
41 | COc1ccc(CN(C)C[C@H]2Oc3ccc(NC(=O)CCCCCC(=O)Nc4ccccc4N)cc3CC(=O)N([C@H](C)CO)C[C@H]2C)cc1 | 18
42 | OC[C@H]1O[C@@H](n2cnc3c(NCc4ccco4)ncnc32)[C@H](O)[C@@H]1O | 3.68

Row | SMILES | AC35 [µM]
43 | CC(=O)Nc1cccc(-c2ccnc3c2CC(C)(C(=O)NCc2ccc(N(C)C)cc2)O3)c1 (centres undefined) | 13.3
44 | N#C[C@H]1[C@H](c2ccc(-c3ccccc3F)cc2)[C@@H](CO)N1C(=O)Cc1ccccc1 | 10.2
45 | O=C(N/N=C/c1cnc(N2CCCCC2)s1)c1ccc(C(F)(F)F)cc1 | 13.8
46 | O=c1c(Cl)cc(Cl)nn1-c1ccccc1 | 5.55
47 | COc1ccc(C2=Nn3c(nnc3-c3ccccc3F)SC2)cc1OC1CCOC1 (centres undefined) | 13.5
48 | C[C@@H]1CCCCO[C@H](CN(C)Cc2ccc(C(=O)Nc3ccccc3N)cc2)[C@@H](C)CN([C@H](C)CO)C(=O)c2cc(NS(=O)(=O)c3ccc(F)cc3)ccc2O1 | 14.1
49 | O=C(C[C@H]1C[C@H]2c3cc(NS(=O)(=O)c4ccc(F)cc4)ccc3O[C@H]2[C@H](CO)O1)NCc1ccc(Oc2ccccc2)cc1 | 12.6
50 | COc1ccc(NC(=O)N2CCCCN3[C@@H](CO)[C@H](c4ccc(C5=CCCCC5)cc4)[C@@H]3C2)cc1 | 10.3
51 | CCc1nc(N)nc(N)c1-c1ccc(Cl)cc1 | 8.71
52 | CC(C)Oc1ccc(Br)cc1C(=O)N/N=C/c1c[nH]c2ccccc12 | 22.6
53 | CC(=O)OC1CC(OC2C(O)CC(OC3C(O)CC(OC4CCC5(C)C(CCC6C5CCC5(C)C(C7=CC(=O)OC7)C(O)CC65O)C4)OC3C)OC2C)OC(C)C1OC1OC(CO)C(O)C(O)C1O (centres undefined) | 1.26
54 | COC(=O)C[C@@H]1CC[C@@H]2[C@H](COc3ccc(NC(=O)c4ccc(C(F)(F)F)cc4)cc3C(=O)N2C)O1 | 10.5
55 | CCNC(=O)c1cc2c(c(-c3cccc(-c4cccc(OC)c4)c3)n1)[C@H](CCO)N([S@@](=O)C(C)(C)C)C2 | 5.13
56 | CC1(C)N=C(N)N=C(N)N1c1ccc(OCCCOc2ccccc2)c(Cl)c1 | 1.48
57 | C[C@@H]1CN([C@@H](C)CO)C(=O)c2cc(NS(=O)(=O)c3ccc(Cl)cc3)ccc2O[C@@H]1CN(C)Cc1ccc(C(=O)Nc2ccccc2N)cc1 | 10.7
58 | CCc1ccc2oc(C(=O)N3CCN(c4ccccc4OC)CC3)cc(=O)c2c1 | 14.3
59 | COc1cc(/C=C/C(=O)CC(=O)/C=C/c2ccc(O)c(OC)c2)ccc1O | 2.54
60 | COc1ccccc1N(/N=C1\Sc2ccccc2C1=O)C(C)=O | 14.8
61 | CN1C/C(=C/c2ccsc2)C(=O)/C(=C/c2ccsc2)C1 | 8.67
62 | N#CC(C#N)=C1C=CC=CN1/C(=C\c1ccco1)C(=O)c1ccc(Cl)cc1 | 3.04
63 | COC(=O)C[C@H]1CC[C@H]2[C@@H](COc3ccc(NC(=O)Nc4cccc(Cl)c4)cc3C(=O)N2C)O1 | 14.7

Row | SMILES | AC35 [µM]
64 | CN(C)c1ccc(N=Nc2nc3ccccc3n2C)cc1 | 8.63
65 | c1ccc(Nc2nnc(-c3ccc4c(c3)OCO4)o2)cc1 | 11.9
66 | Cc1cccc(CN2C(=O)/C(=C\c3ccc(C(=O)NCCCN4CCN(C)CC4)cc3)Oc3ccccc32)c1 | 12.3
67 | COC(=O)C[C@@H]1CC[C@@H]2[C@H](COc3ccc(NC(=O)Nc4cccc(C#N)c4)cc3C(=O)N2C)O1 | 12
68 | Cc1ccc(S(=O)(=O)Nc2ccc3c(c2)C(=O)N([C@@H](C)CO)C[C@@H](C)[C@@H](CN(C)Cc2ccc(C(=O)Nc4ccccc4N)cc2)O3)cc1 | 9.91
69 | C[C@H](CO)N1C[C@H](C)[C@@H](CN(C)Cc2ccc(Oc3ccccc3)cc2)Oc2ccc(NS(=O)(=O)c3ccc(Cl)cc3)cc2CC1=O | 16.2
70 | CCCN1C/C(=C/c2ccc3c(c2)OCO3)C(=O)/C(=C/c2ccc3c(c2)OCO3)C1 | 3.77
71 | Oc1[nH]c2ccc(Br)cc2c1N=NC(=S)N1CCOCC1 | 0.236
72 | C[C@@H]1CN([C@@H](C)CO)C(=O)c2cc(NS(=O)(=O)c3ccccc3)ccc2O[C@@H]1CN(C)Cc1ccc(C(=O)Nc2ccccc2N)cc1 | 8.39
73 | CCN1/C(=C/C=C/c2oc3ccc(-c4ccccc4)cc3[n+]2CC)Oc2ccc(-c3ccccc3)cc21 | 1.98
74 | COc1ccc(-c2cnc3c(NC=O)cc(-c4ccccc4OC)cn23)cc1OC | 0.101
75 | CN(C)c1ccc2c(c1)[C@@H]1C[C@@H](CC(=O)NCc3ccc(Oc4ccccc4)cc3)O[C@H](CO)[C@@H]1O2 | 12.8
76 | COC1C(C)OC(OC2CC(C)(O)Cc3cc4c(c(O)c32)C(=O)c2c(O)cc3c(c2C4=O)OC2OC3(C)C(O)C(N(C)C)C2O)C(OC)C1(C)OC (centres undefined) | 0.0582
77 | COC(=O)C[C@@H]1CC[C@@H]2[C@@H](COc3ccc(NC(=O)Nc4cccc(C#N)c4)cc3C(=O)N2C)O1 | 9.17
78 | Cc1cc(C(=O)Nc2ccc3c(c2)C(=O)N(C)[C@@H]2CC[C@H](CC(=O)N[C@H](C)c4ccccc4)O[C@H]2CO3)no1 | 12.9
79 | C[C@@H]1O[C@@H](O[C@H]2C[C@@H](O)[C@]3(CO)[C@H]4[C@H](O)C[C@]5(C)[C@@H](C6COC(=O)C6)CC[C@]5(O)[C@@H]4CC[C@]3(O)C2)[C@H](O)[C@H](O)[C@H]1O (some centres undefined) | 2.06
80 | O=C1NC(=S)NC(=O)C1=Cc1cccn1-c1ccc(O)cc1 | 17.7
81 | CCCCCCN(C(=O)CCCCCN1C(=O)NC(c2ccc(Cl)cc2)C(C(=O)OCc2ccccc2)=C1C)C(C(=O)NCCCC)c1ccc(OCC(=O)OC)c(C(=O)OC)c1 (centres undefined) | 10.8
82 | COc1ccc(/C=C(/C(=O)c2cccs2)N2C=CC=CC2=C(C#N)C#N)cc1 | 3.97
83 | OCC1OC(n2cnc3c(NCc4ccco4)ncnc32)C(O)C1O (centres undefined) | 4.04
84 | C[C@H](CO)N1C[C@H](C)[C@H](CN(C)Cc2ccc(C(=O)Nc3ccccc3N)cc2)Oc2ccc(NS(=O)(=O)c3cccs3)cc2C1=O | 14.5
